Measured values published in patent publication US10005767B2, “Compositions and methods for inhibition of the JAK pathway” (Rigel Pharmaceuticals, Inc., priority 2009, dated 2018).
Where two headings read alike, the source gives them in different places.

Test system: human primary T-cells, IL-2 stimulated proliferation (JAK-1 and JAK-3 dependent; reported as JAK3 activity)
Test: Human primary T-cell proliferation stimulated by IL-2 (Example 3)
Format: cell-based
Conditions: tested under conditions described in Example 3 (IL-2 stimulated human primary T-cell proliferation), read-out: ability to inhibit JAK3 activity, IC50 range (Table V)
Excerpt: The activity of the compounds described herein can further be characterized by assaying the effect of the 2,4-pyrimidinediamine compounds described herein on the proliferative response of primary human T-cells. In this assay, primary human T-cells derived from peripheral blood and pre-activated through stimulation of the T-cell receptor and CD28, proliferate in culture in response to the cytokine Interleukin-2 (IL-2). This proliferative response is dependent on the activation of JAK1 and JAK3 tyrosine kinases, which phosphorylate and activate the transcription factor Stat-5. The primary human T-cells are incubated with the 2,4-pyrimidinediamine compounds in the presence of IL-2 for 72 hours, and at the assay endpoint intracellular ATP concentrations are measured to assess cell viability. A reduction in cell proliferation compared to control conditions is indicative of inhibition of the JAK kinase pathway.
Primary human T-cells derived from peripheral blood and pre-activated through stimulation of the T-cell receptor and CD28, proliferate in vitro in response to the cytokine Interleukin-2 (IL-2). This proliferative response is dependent on the activation of JAK-1 and JAK-3 tyrosine kinases, which phosphorylate and activate the transcription factor Stat-5.
Human primary T cells were prepared as follows. […] The lymphocytes at the serum: ficoll interface were recovered and washed twice with 5 volumes of PBS. […] The primary T-cells were stimulated for 3-4 days, then transferred to a fresh flask and maintained in RPMI with 10% FBS and 40 U/mL IL-2.
The day prior to the assay set up, primary T-cells were centrifuged and resuspended in fresh RPMI with 10% FBS but without IL-2 and starved overnight. For the assay, the primary T-cells were centrifuged and resuspended Yssel's medium at 2×10^6 cells/mL. 50 μL of cell suspension containing 80 U/mL IL-2 was added to each well of a flat bottom 96 well black plate. For the unstimulated control, IL-2 was omitted from the last column on the plate. […] 50 μL of 2× compound was added per well in duplicate and the cells were allowed to proliferate for 72 hours at 37° C.
Proliferation was measured using CellTiter-Glo® Luminescent Cell Viability Assay (Promega), which determines the number of viable cells in culture based on quantitation of the ATP present, as an indicator of metabolically active cells. The substrate was thawed and allowed to come to ambient temperature. After mixing the Cell Titer-Glo reagent and diluent together, 100 μL was added to each well. The plates were mixed on an orbital shaker for two minutes to induce lysis and incubated at ambient temperature for an additional ten minutes to allow the signal to equilibrate.
The compound designations in Table V are consistent with those of Tables I-IV above.

Row | Structure (SMILES) | IC50 (Homo sapiens, T-cell) [nM] | IC50 [nM]
1 | Cc1cnc(Nc2cccc(S(=O)(=O)N3CCOCC3)c2)nc1Nc1ccc2oc(=O)[nH]c2c1 [Compound I-30, N4-(benzo[d]oxazol-2(3H)-on-5-yl)-N2-(3-(morpholinosulfonyl)phenyl)-5-methylpyrimidine-2,4-diamine] | < 500 | 
2 | COc1c(F)ccc(Nc2ncc(C)c(Nc3cc(F)c4oc(=O)[nH]c4c3)n2)c1F [Compound I-508, 5-(2-(2,4-difluoro-3-methoxyphenylamino)-5-methylpyrimidin-4-ylamino)-7-fluorobenzo[d]oxazol-2(3H)-one] | < 500 | 
3 | Cc1cnc(Nc2ccc(N3CCN(C)CC3)nc2)nc1Nc1cc(C)c2oc(=O)[nH]c2c1 [II-72, 7-methyl-5-(5-methyl-2-(6-(4-methylpiperazin-1-yl)pyridin-3-ylamino)pyrimidin-4-ylamino)benzo[d]oxazol-2(3H)-one] | < 500 | 
4 | Cc1cnc(Nc2cc(F)cc(OC(C)(C)C(N)=O)c2)nc1Nc1ccc2oc(=O)[nH]c2c1 [Compound I-402, N2-[3-(1-aminocarbonyl-1-methyl)ethoxy-5-fluoro]phenyl-5-methyl-N4-(2-oxo-2,3-dihydro-1,3-benzoxazol-5-yl)-2,4-pyrimidinediamine] |  | < 500
5 | COc1cc(Nc2ncc(C)c(Nc3ccc4oc(=O)[nH]c4c3)n2)ccc1C(F)(F)F [Compound I-354, N2-(3-methoxy-4-trifluoromethyl)phenyl-5-methyl-N4-(2-oxo-2,3-dihydro-1,3-benzoxazol-5-yl)-2,4-pyrimidinediamine] |  | < 500
6 | Cc1cnc(Nc2ccc3c(c2)NC(=O)C3(C)C)nc1Nc1ccc2oc(=O)[nH]c2c1 [IV-26, 5-(2-(3,3-dimethyl-2-oxoindolin-6-ylamino)-5-methylpyrimidin-4-ylamino)benzo[d]oxazol-2(3H)-one] | < 500 | 
7 | Cc1cc(F)c(Nc2ncc(C)c(Nc3ccc4oc(=O)[nH]c4c3)n2)cc1C [Compound I-530, 5-(2-(2-fluoro-4,5-dimethylphenylamino)-5-methylpyrimidin-4-ylamino)benzo[d]oxazol-2(3H)-one] | < 500 | 
8 | Cc1cnc(Nc2cnc(N3C[C@@H]4C[C@H]3CN4C)c(C#N)c2)nc1Nc1ccc2oc(=O)[nH]c2c1 [II-115, N4-(benzo[d]oxazolin-2(3H)-one-5-yl)-N2-[3-cyano-2-((1S,4S)-5-methyl-2,5-diazabicyclo[2.2.1]heptan-2-yl)pyridine-5-yl]-5-methyl-2,4-pyrimidinediamine] | < 500 | 
9 | COC(=O)c1ccc(Nc2ncc(C)c(Nc3ccc4oc(=O)[nH]c4c3)n2)cc1 [Compound I-125, 4-[5-Methyl-4-(2-oxo-2,3-dihydro-benzooxazol-5-ylamino)-pyrimidin-2-ylamino]-benzoic acid methyl ester] | < 500 | 
10 | Cc1cnc(Nc2cnc(N3CC4CN(C(=O)OC(C)(C)C)CC4C3)c(F)c2)nc1Nc1ccc2oc(=O)[nH]c2c1 (stereo not drawn) [II-48, 5-{3-Fluoro-5-[5-methyl-4-(2-oxo-2,3-dihydro-benzooxazol-5-ylamino)-pyrimidin-2-ylamino]-pyridin-2-yl}-hexahydro-pyrrolo[3,4-c]pyrrole-2-carboxylic acid tert-butyl ester] | < 500 | 
11 | Cc1cnc(Nc2cc(C(F)(F)F)cc(C(F)(F)F)c2)nc1Nc1ccc2oc(=O)[nH]c2c1 [Compound I-169, 5-[2-(3,5-Bis-trifluoromethyl-phenylamino)-5-methyl-pyrimidin-4-ylamino]-3H-benzooxazol-2-one] | < 500 | 
12 | Cc1cnc(Nc2cnc3c(c2)c(C)nn3C)nc1Nc1ccc2oc(=O)[nH]c2c1 [IV-40, N2-(1,3-dimethyl-1H-pyrazolo[3,4-b]pyridin-5-yl)-5-methyl-N4-(2-oxo-2,3-dihydro-1,3-benzoxazol-5-yl)-2,4-pyrimidinediamine] | < 500 | 
13 | Cc1cnc(Nc2cccc(N3CCOCC3)c2)nc1Nc1ccc2[nH]c(=O)oc2c1 [Compound I-48, N4-(benzo[d]oxazol-2(3H)-on-6-yl)-N2-((3-morpholinyl)phenyl)-5-methylpyrimidine-2,4-diamine] |  | < 500
14 | COc1ccc(Nc2ncc(C)c(Nc3ccc4oc(=O)[nH]c4c3)n2)cc1C(=O)N1CCN(C)CC1 [Compound I-263, 5-(2-(4-methoxy-3-(4-methylpiperazine-1-carbonyl)phenylamino)-5-methylpyrimidin-4-ylamino)benzo[d]oxazol-2(3H)-one] | < 500 | 
15 | Cc1cnc(Nc2ccc(N3CCN(C)CC3)nc2)nc1Nc1ccc2oc(=O)n(C)c2c1 [II-22, N2-(6-(4-methylpiperazin-1-yl)pyridin-3-yl)-N4-(3-methyl-2-oxo-2,3-dihydrobenzo[d]oxazol-5-yl)-5-methylpyrimidine-2,4-diamine] | < 500 | 
16 | Cc1cnc(Nc2cccc(S(C)(=O)=O)c2)nc1Nc1ccc2oc(=O)n(COP(=O)(O)O)c2c1 [Compound I-33, N4-(3-phosphorylmethylbenzo[d]oxazol-2(3H)-on-5-yl)-N2-((3-methylsulfonyl)phenyl)-5-methylpyrimidine-2,4-diamine] |  | < 500
17 | COc1cc(Nc2ncc(C)c(Nc3ccc4oc(=O)[nH]c4c3)n2)ccc1F [Compound I-183, 5-[2-(4-Fluoro-3-methoxy-phenylamino)-5-methyl-pyrimidin-4-ylamino]-3H-benzooxazol-2-one] | < 500 | 
18 | Cc1cnc(Nc2ccc(F)c(OC(C)(C)C(N)=O)c2)nc1Nc1ccc2oc(=O)[nH]c2c1 [Compound I-386, N2-[3-(1-aminocarbonyl-1-methyl)ethoxy-4-fluoro]phenyl-5-methyl-N4-(2-oxo-2,3-dihydro-1,3-benzoxazol-5-yl)-2,4-pyrimidinediamine] |  | < 500
19 | CCCN1CCN(c2cc(Nc3ncc(C)c(Nc4ccc5oc(=O)[nH]c5c4)n3)ccc2C(F)(F)F)CC1 [Compound I-285, 5-methyl-N4-(2-oxo-2,3-dihydro-1,3-benzoxazol-5-yl)-N2-[3-(4-propylpiperazino)-4-trifluoromethyl]phenyl-2,4-pyrimidinediamine] |  | < 500
20 | O=c1[nH]c2ccc(Nc3nc(Nc4cccc(S(=O)(=O)N5CCOCC5)c4)ncc3F)cc2[nH]1 [Compound I-32, N4-(benzimidazolin-2-on-5-yl)-N2-(3-(morpholinosulfonyl)phenyl)-5-fluoropyrimidine-2,4-diamine] |  | 500 to 5000
21 | Cc1cnc(Nc2ccc(-c3ccncc3)c(Cl)c2)nc1Nc1ccc2oc(=O)[nH]c2c1 [Compound I-329, N2-[3-chloro-4-(pyridin-4-yl)]phenyl 5-methyl-N4-(2-oxo-2,3-dihydro-1,3-benzoxazol-5-yl)-2,4-pyrimidinediamine] |  | 500 to 5000
22 | Cc1cnc(Nc2cc(F)ccc2F)nc1Nc1ccc2oc(=O)[nH]c2c1 [Compound I-466, 5-[2-(2,5-Difluoro-phenylamino)-5-methyl-pyrimidin-4-ylamino]-3H-benzooxazol-2-one] | < 500 | 
23 | Cc1cnc(Nc2cc(C)c(F)c(C)c2)nc1Nc1cc(F)c2oc(=O)[nH]c2c1 [Compound I-490, 7-fluoro-5-(2-(4-fluoro-3,5-dimethylphenylamino)-5-methylpyrimidin-4-ylamino)benzo[d]oxazol-2(3H)-one] | < 500 | 
24 | CN1CCN(c2ccc(Nc3ncc(F)c(Nc4ccc5oc(=O)n(C)c5c4)n3)cn2)CC1 [II-24, N2-(6-(4-methylpiperazin-1-yl)pyridin-3-yl)-N4-(3-methyl-2-oxo-2,3-dihydrobenzo[d]oxazol-5-yl)-5-fluoropyrimidine-2,4-diamine] | 500 to 5000 | 
25 | COc1ncc(Nc2ncc(C)c(Nc3ccc4oc(=O)[nH]c4c3)n2)cc1C [II-141, N2-(2-methoxy-3-methylpyridin-5-yl)-5-methyl-N4-(2-oxo-2,3-dihydro-1,3-benzoxazol-5-yl)-2,4-pyrimidinediamine] | < 500 | 
26 | Cc1cc(Nc2ncc(C)c(Nc3ccc4oc(=O)[nH]c4c3)n2)ccc1F [Compound I-362, N2-(4-fluoro-3-methyl)phenyl-5-methyl-N4-(2-oxo-2,3-dihydro-1,3-benzoxazol-5-yl)-2,4-pyrimidinediamine] |  | < 500
27 | Cc1cnc(Nc2ccc(N3CCC(C)(C)CC3)nc2)nc1Nc1ccc2oc(=O)[nH]c2c1 [II-60, 5-(2-(6-(4,4-dimethylpiperidin-1-yl)pyridin-3-ylamino)-5-methylpyrimidin-4-ylamino)benzo[d]oxazol-2(3H)-one] | < 500 | 
